This is an account of results in publication PMC4907692, “Engineering vanilloid-sensitivity into the rat TRPV2 channel” (eLife, 2016).

As a reminder, the Kd is the free concentration of one partner at which half of the binding sites on the other are occupied at equilibrium, for simple one-to-one binding.

For this assay, the target named is T1, 1D4-tagged TRPV2 QM (Rattus norvegicus, UniProt Q9WUD2, F472S/L507M/L510T/Q530E).
T1 construct: made in house; host or cells: S. cerevisiae BJ5457, isolated membranes
T1 sequence (Q9WUD2 1-761 F472S/L507M/L510T/Q530E): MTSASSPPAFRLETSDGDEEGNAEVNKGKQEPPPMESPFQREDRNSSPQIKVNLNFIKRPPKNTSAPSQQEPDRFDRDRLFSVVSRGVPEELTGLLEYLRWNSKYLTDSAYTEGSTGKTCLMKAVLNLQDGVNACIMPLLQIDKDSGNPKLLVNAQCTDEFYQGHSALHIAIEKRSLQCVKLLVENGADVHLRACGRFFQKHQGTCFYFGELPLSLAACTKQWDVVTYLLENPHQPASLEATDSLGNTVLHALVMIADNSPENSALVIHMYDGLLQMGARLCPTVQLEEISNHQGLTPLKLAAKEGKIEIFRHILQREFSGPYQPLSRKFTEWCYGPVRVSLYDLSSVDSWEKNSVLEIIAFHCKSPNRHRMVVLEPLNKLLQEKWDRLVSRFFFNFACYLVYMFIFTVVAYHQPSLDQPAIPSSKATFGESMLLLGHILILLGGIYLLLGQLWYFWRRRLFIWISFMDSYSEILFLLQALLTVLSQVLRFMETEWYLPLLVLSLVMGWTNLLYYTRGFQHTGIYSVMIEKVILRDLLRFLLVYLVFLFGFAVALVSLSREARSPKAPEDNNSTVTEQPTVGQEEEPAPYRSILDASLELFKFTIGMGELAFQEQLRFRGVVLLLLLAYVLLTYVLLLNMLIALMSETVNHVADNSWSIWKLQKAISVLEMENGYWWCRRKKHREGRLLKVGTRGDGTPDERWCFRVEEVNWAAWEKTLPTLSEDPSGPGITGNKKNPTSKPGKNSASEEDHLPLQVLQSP
The assay is described as follows: 3H-RTx binding to yeast membranes containing 1D4-tagged TRPV2 QM. From the text: To examine the strength of RTx binding to the TRPV2 channel, we undertook binding assays after expressing 1D4-tagged TRPV2 and TRPV2 QM in S. cerevisiae and isolating yeast membranes, similar to the experiments described above with TRPV1 (Figure 2). […] To examine the relative importance of the four residues for mediating RTx sensitivity in the TRPV2 QM, we constructed triple mutants and evaluated their sensitivity to RTx electrophysiologically.
The full-length TRPV1 and TRPV2 channels with 1D4 affinity tags ([…]) on their C-termini were cloned into the YEpHIS vector and expressed in the BJ5457 strain of S. cerevisiae using the strong constitutively active PMA1 promoter, as previously described ([Moiseenkova-Bell et al., 2008]). After 48 hr of expression at 30°C in YPD media, cells were harvested by centrifugation and re-suspended in PBS buffer, supplemented with complete protease inhibitor cocktail (Roche, Indianapolis, IN) and 4-amidinophenylmethanesulfonyl fluoride hydrochloride (APMSF) (Sigma-Aldrich, St. Louis, MO). Cells were broken by passing through an Avestin homogenizer at the pressure of 35 kpsi, cell lysate was cleared by centrifugation at 8,000 g for 15 min and membranes were isolated by ultracentrifugation at 190,000 g for 1 hr. […]
S. cerevisiae cells overexpressing TRPV1 constructs to be used in ligand binding assays on intact cells (Figure 1E,F) were grown as for small scale expression trials. 24 hr after protein induction cells were spun down at 4000g, the supernatant was removed and the pellet resuspended in 1x PBS, normalizing OD600 to 75 for each sample, and aliquoted for storage at -80°C. ^3H-RTx binding assays on cells were performed at 37°C as previously described ([Feng et al., 2015]), but where non-specific binding of RTx was measured using cells expressing GFP alone. […] Data for binding of RTx to membranes was corrected for non-specific binding, determined using either excess non-radioactive ligand or heat inactivation of the protein, as previously described ([Feng et al., 2015]). […]

Turning to `C=C(C)[C@]12C[C@@H](C)[C@@]34O[C@](Cc5ccccc5)(O[C@@H]1[C@@H]3C=C(COC(=O)Cc1ccc(O)c(OC)c1)C[C@]1(O)C(=O)C(C)=C[C@@H]41)O2` [RTx, resiniferatoxin], the “affinity of RTx for TRPV2 QM lower compared to TRPV1” value is recorded as “about 30 fold”. The “Hill slope (nH)” value (37°C) is given as 1.7. Further, where the note is “37°C, read-out: Kd of 3H-RTx binding (Hill fit)”, the Kd is 18 nM.
